# Activity calls are given as the source filed them. No cut-off for these calls is given here.
# Tests used:
# [1] = Growth inhibition of human MSC cells after 48 hrs by SRB assay; assay type: cell-based
# BXPC-3 [2] = test: Antitumor activity against human BxPC3 cells xenografted in SCID mouse assessed as reduction in tumor volume at 40 mg/kg, ip for 5 consecutive days and 2 administrations for one more week; assay type: functional; settings: BXPC-3, ip, route intraperitoneal
# BXPC-3 [3] = test: Induction of apoptosis in human BxPC3 cells assessed as cleaved caspase-3 containing cells at 0.5 uM after 24 hrs by FACS analysis (reference value: 10%); assay type: functional
# IGROV-1 [4] = test: Induction of apoptosis in human IGROV1 cells assessed as early apoptotic cells at 50 uM after 24 hrs by Annexin V/7-AAD staining based flow cytometry (reference value: 9%); assay type: functional
# BXPC-3 [5] = test: Cell cycle arrest in human BxPC3 cells assessed as accumulation at S phase at 0.5 uM after 24 hrs by propidium iodide staining based flow cytometry (reference value: 33%); assay type: functional
# Mus musculus [6] = test: Analgesic activity against formalin-induced neuropathic pain in paclitaxel treated CD1 mouse assessed as decrease of time spent in paw licking at 100 mg/kg, po administered 14 days post paclitaxel dosing and 1 hr prior formalin challenge measured for 0 to 5 mins post formalin challenge; assay type: functional, organism-based; parameters: dose 100 mg/kg
# IGROV-1 [7] = test: Induction of apoptosis in human IGROV1 cells assessed as late apoptotic cells at 5 uM after 24 hrs by Annexin V/7-AAD staining based flow cytometry (reference value: 4%); assay type: functional
# OVCAR-5 = test: Growth inhibition of human OVCAR5 cells after 48 hrs by SRB assay; assay type: functional; settings: OVCAR-5, 48 h
# BXPC-3 [8] = test: Induction of apoptosis in human BxPC3 cells assessed as late apoptotic cells at 15 uM after 24 hrs by Annexin V/7-AAD staining based flow cytometry (reference value: 9%); assay type: functional
# PC-3 [9] = test: Induction of apoptosis in human PC3 cells assessed as cleaved caspase-3 containing cells at 5 uM after 24 hrs by FACS analysis (reference value: 3%); assay type: functional
# PC-3 [10] = test: Induction of apoptosis in human PC3 cells assessed as healthy cells at 50 uM after 24 hrs by Annexin V/7-AAD staining based flow cytometry (reference value: 92%); assay type: functional
# BXPC-3 [11] = test: Cell cycle arrest in human BxPC3 cells assessed as accumulation at G1 phase at 50 uM after 24 hrs by propidium iodide staining based flow cytometry (reference value: 41%); assay type: functional
# [12] = (§1) Growth inhibition of HUVEC cells after 48 hrs by SRB assay; assay type: cell-based; settings: human, HUVEC cells
# HUVEC = test: as §1; assay type: cell-based; settings: human, huvec, 48 h
# IGROV-1 [13] = test: Cytotoxicity against human IGROV1 cells at 50 uM; assay type: functional, cell-based
# BXPC-3 [14] = test: Cell cycle arrest in human BxPC3 cells assessed as accumulation at G2 phase at 5 uM after 24 hrs by propidium iodide staining based flow cytometry (reference value: 12%); assay type: functional
# Mus musculus [15] = test: Analgesic activity against formalin-induced neuropathic pain in paclitaxel treated CD1 mouse assessed as decrease of time spent in paw licking at 100 mg/kg, po administered 14 days post paclitaxel dosing and 1 hr prior formalin challenge measured for 35 to 40 mins post formalin challenge; assay type: functional, organism-based; parameters: dose 100 mg/kg
# PC-3 [16] = test: Induction of apoptosis in human PC3 cells assessed as cleaved caspase-3 containing cells at 0.5 uM after 24 hrs by FACS analysis (reference value: 3%); assay type: functional
# IGROV-1 [17] = test: Induction of apoptosis in human IGROV1 cells assessed as healthy cells at 5 uM after 24 hrs by Annexin V/7-AAD staining based flow cytometry (reference value: 86%); assay type: functional
# PC-3 [18] = test: Cell cycle arrest in human PC3 cells assessed as accumulation at >G2 phase at 5 uM after 24 hrs by propidium iodide staining based flow cytometry (reference value: 6%); assay type: functional
# IGROV-1 [19] = test: Cell cycle arrest in human IGROV1 cells assessed as accumulation at G2 phase at 15 uM after 24 hrs by propidium iodide staining based flow cytometry (reference value: 19%); assay type: functional
# PC-3 [20] = test: Induction of apoptosis in human PC3 cells assessed as cleaved caspase-3 containing cells at 15 uM after 24 hrs by FACS analysis (reference value: 3%); assay type: functional
# DMS-114 = test: Growth inhibition of human DMS114 cells after 48 hrs by SRB assay; assay type: functional; settings: DMS-114, 48 h
# IGROV-1 [21] = test: Cell cycle arrest in human IGROV1 cells assessed as accumulation at G1 phase at 0.5 uM after 24 hrs by propidium iodide staining based flow cytometry (reference value: 27%); assay type: functional
# HCT-116 = test: Cytotoxicity against human HCT116 cells after 48 hrs by trypan blue assay; assay type: functional, cell-based
# IGROV-1 [22] = test: Induction of apoptosis in human IGROV1 cells assessed as early apoptotic cells at 15 uM after 24 hrs by Annexin V/7-AAD staining based flow cytometry (reference value: 9%); assay type: functional
# BXPC-3 [23] = test: Induction of apoptosis in human BxPC3 cells assessed as late apoptotic cells at 50 uM after 24 hrs by Annexin V/7-AAD staining based flow cytometry (reference value: 9%); assay type: functional
# IGROV-1 [24] = test: Induction of apoptosis in human IGROV1 cells assessed as cleaved caspase-3 containing cells at 15 uM after 24 hrs by FACS analysis (reference value: 4%); assay type: functional
# BXPC-3 [25] = test: Induction of apoptosis in human BxPC3 cells assessed as early apoptotic cells at 5 uM after 24 hrs by Annexin V/7-AAD staining based flow cytometry (reference value: 11%); assay type: functional
# MCF7 = test: Growth inhibition of human MCF7 cells after 48 hrs by SRB assay; assay type: functional; settings: MCF7, 48 h
# BXPC-3 [26] = test: Cell cycle arrest in human BxPC3 cells assessed as accumulation at S phase at 5 uM after 24 hrs by propidium iodide staining based flow cytometry (reference value: 33%); assay type: functional
# PC-3 [27] = test: Cell cycle arrest in human PC3 cells assessed as accumulation at G1 phase at 15 uM after 24 hrs by propidium iodide staining based flow cytometry (reference value: 36%); assay type: functional
# IGROV-1 [28] = test: Induction of apoptosis in human IGROV1 cells assessed as healthy cells at 15 uM after 24 hrs by Annexin V/7-AAD staining based flow cytometry (reference value: 86%); assay type: functional
# BXPC-3 [29] = test: Cell cycle arrest in human BxPC3 cells assessed as accumulation at S phase at 15 uM after 24 hrs by propidium iodide staining based flow cytometry (reference value: 33%); assay type: functional
# PC-3 [30] = test: Cell cycle arrest in human PC3 cells assessed as accumulation at S phase at 15 uM after 24 hrs by propidium iodide staining based flow cytometry (reference value: 42%); assay type: functional
# BXPC-3 [31] = test: Induction of apoptosis in human BxPC3 cells assessed as early apoptotic cells at 50 uM after 24 hrs by Annexin V/7-AAD staining based flow cytometry (reference value: 11%); assay type: functional
# BXPC-3 [32] = test: Cell cycle arrest in human BxPC3 cells assessed as accumulation at G2 phase at 50 uM after 24 hrs by propidium iodide staining based flow cytometry (reference value: 12%); assay type: functional
# [33] = read-out: LC50 (the source's name)
compound,measurement,setting,value
CN1CCN(c2ccc(C(c3ccccc3)C34CC5CC(CC(C5)C3)C4)cc2)CC1 (stereo unspecified),GI50 at 48 h,[1]; MSC cells,16.9 µM
same,LC50,"[1]; msc, 48 h",91.56 µM
same,TGI,"[1]; msc, 48 h",54.21 µM
same,inhibition in vivo at 40 mg/kg,BXPC-3 [2],37.8%
same,Activity,BXPC-3 [3],3%
same,Activity,IGROV-1 [4],46%
same,Activity,BXPC-3 [5],34%
same,Activity,Mus musculus [6],Active
same,Activity,IGROV-1 [7],3%
same,GI50,OVCAR-5,8 µM
same,TGI,OVCAR-5,41.9 µM
same,CC50,OVCAR-5; [33],94.5 µM
same,Activity,BXPC-3 [8],16%
same,Activity,PC-3 [9],2%
same,Activity,PC-3 [10],61%
same,Activity,BXPC-3 [11],33%
same,GI50 at 48 h,[12],4.52 µM
same,LC50,HUVEC,10.34 µM
same,TGI,HUVEC,7.43 µM
same,Activity,IGROV-1 [13],Active
same,Activity,BXPC-3 [14],12%
same,Activity,Mus musculus [15],Active
same,Activity,PC-3 [16],1%
same,Activity,IGROV-1 [17],88%
same,Activity,PC-3 [18],5%
same,Activity,IGROV-1 [19],21%
same,Activity,PC-3 [20],3%
same,GI50,DMS-114,5.43 µM
same,TGI,DMS-114,9.17 µM
same,CC50,DMS-114; [33],100 µM
same,Activity,IGROV-1 [21],26%
same,Activity,HCT-116,Active
same,Activity,IGROV-1 [22],18%
same,Activity,BXPC-3 [23],33%
same,Activity,IGROV-1 [24],30%
same,Activity,BXPC-3 [25],17%
same,GI50,MCF7,11.6 µM
same,TGI,MCF7,16.9 µM
same,CC50,MCF7; [33],3.17 µM
same,Activity,BXPC-3 [26],30%
same,Activity,PC-3 [27],49%
same,Activity,IGROV-1 [28],62%
same,Activity,BXPC-3 [29],19%
same,Activity,PC-3 [30],33%
same,Activity,BXPC-3 [31],15%
same,Activity,BXPC-3 [32],13%

# — ChEMBL document CHEMBL2021794, “Synthesis, σ₁, σ₂-receptors binding affinity and antiproliferative action of new C1-substituted adamantanes” (Bioorg Med Chem, 2012)
